# Measurements from patent publication US12558337B2, “Formulations comprising melflufen” (ON[…], priority 2019, dated 2026).
# Where a name gives a salt, the structure may show the parent alone.
# Assay: Stability of liquid formulations containing a melflufen salt and propylene glycol at room temperature (HPLC-MS)
# Assay type: physicochemical
# Conditions: for Purity of melfufen in the liquid formulation containing a melfufen salt and propylene glycol at RT: 20 mg/mL in propylene glycol, RT (20-25° C.); for stability on storage: in propylene glycol, room temperature (RT), over 7 weeks
# Procedure: The solubility and stability of ethanesulfonic acid, p-toluenesulfonic acid and hydrochloric acid salts of melflufen in propylene glycol were investigated. 10 mg of each melflufen salt was transferred to transparent 4 mL vials and propylene glycol (Merck Lot # K51750378936, 1.07478.2500) was added to a concentration of 20 mg/mL. The vials were shaken for a short time and stored at room temperature (RT, 20-25° C.).
# The stability of the melflufen salt solutions were analysed at weekly time points by Analytical HPLC-MS using an Agilent 1100 series Liquid Chromatograph/Mass Selective Detector (MSD) (Single Quadrupole) equipped with an electrospray interface and a UV diode array detector. Analysis was performed by using an ACE 3 C8 (3.0×50 mm) column with a gradient of 10-97% acetonitrile in 0.1% aqueous TFA over 3 min and a flow of 1 mL/min. UV was monitored at 305 nm. At each time point (0, 1, 2, 3, 4, 5, 6 and 7 weeks) 10 μL of the melflufen solution was diluted with 490 μL of acetonitrile before HPLC-MS analysis.
Structure (SMILES),Purity of melfufen in the liquid formulation containing a melfufen salt and propylene glycol at RT (0 weeks),Purity of melfufen in the liquid formulation containing a melfufen salt and propylene glycol at RT (1 week),Purity of melfufen in the liquid formulation containing a melfufen salt and propylene glycol at RT (2 weeks),Purity of melfufen in the liquid formulation containing a melfufen salt and propylene glycol at RT (3 weeks),Purity of melfufen in the liquid formulation containing a melfufen salt and propylene glycol at RT (4 weeks),Purity of melfufen in the liquid formulation containing a melfufen salt and propylene glycol at RT (5 weeks),Purity of melfufen in the liquid formulation containing a melfufen salt and propylene glycol at RT (6 weeks),Purity of melfufen in the liquid formulation containing a melfufen salt and propylene glycol at RT (7 weeks),stability on storage
"CCOC(=O)[C@H](Cc1ccc(F)cc1)NC(=O)[C@@H](N)Cc1ccc(N(CCCl)CCCl)cc1.CCS(=O)(=O)O [melflufen ethanesulfonic acid salt, ethanesulfonic acid;ethyl (2S)-2-[[(2S)-2-amino-3-[4-[bis(2-chloroethyl)amino]phenyl]propanoyl]amino]-3-(4-fluorophenyl)propanoate]",100 % relative peak area,95 % relative peak area,94 % relative peak area,93 % relative peak area,94 % relative peak area,89 % relative peak area,88 % relative peak area,87 % relative peak area,good stability
"CCOC(=O)[C@H](Cc1ccc(F)cc1)NC(=O)[C@@H](N)Cc1ccc(N(CCCl)CCCl)cc1 [melflufen hydrochloric acid salt, L-Melphalanyl-4-fluoro-L-phenylalanine ethyl ester, reference compound]",100 % relative peak area,100 % relative peak area,95 % relative peak area,94 % relative peak area,92 % relative peak area,89 % relative peak area,87 % relative peak area,85 % relative peak area,good stability
"CCOC(=O)[C@H](Cc1ccc(F)cc1)NC(=O)[C@@H](N)Cc1ccc(N(CCCl)CCCl)cc1.Cc1ccc(S(=O)(=O)O)cc1 [melflufen p-toluenesulfonic acid salt, Ethyl (2S)-2-[[(2S)-2-amino-3-[4-[bis(2-chloroethyl)amino]phenyl]propanoyl]amino]-3-(4-fluorophenyl)propanoate;4-methylbenzenesulfonic acid]",100 % relative peak area,96 % relative peak area,95 % relative peak area,93 % relative peak area,91 % relative peak area,89 % relative peak area,88 % relative peak area,87 % relative peak area,good stability
